In ChEMBL document CHEMBL3991601, “The target landscape of clinical kinase drugs” (Science, 2017):
Active and inactive are the calls of the source. Rule as the data show it, for most assays here: actives have a measured Kd and inactives only a lower limit.

How the values were obtained:
[1] = molecular target: T1, Serine/threonine-protein kinase 4 (Homo sapiens, UniProt Q13043)
T1 sequence (Q13043 whole entry): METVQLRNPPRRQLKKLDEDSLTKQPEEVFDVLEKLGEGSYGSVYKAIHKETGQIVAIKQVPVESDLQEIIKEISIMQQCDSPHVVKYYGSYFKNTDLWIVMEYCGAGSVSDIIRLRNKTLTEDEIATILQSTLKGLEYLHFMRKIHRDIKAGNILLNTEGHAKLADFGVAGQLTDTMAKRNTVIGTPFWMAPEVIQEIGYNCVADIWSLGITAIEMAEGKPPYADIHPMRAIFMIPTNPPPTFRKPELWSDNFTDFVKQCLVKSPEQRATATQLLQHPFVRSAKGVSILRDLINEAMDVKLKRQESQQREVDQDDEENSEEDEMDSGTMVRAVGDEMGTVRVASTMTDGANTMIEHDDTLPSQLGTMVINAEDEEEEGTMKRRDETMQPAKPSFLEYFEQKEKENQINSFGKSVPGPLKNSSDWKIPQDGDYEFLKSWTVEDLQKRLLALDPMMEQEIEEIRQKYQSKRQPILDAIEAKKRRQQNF

[2] = molecular target: Serine/threonine-protein kinase PAK 4 (Homo sapiens, UniProt O96013)
Chain of Serine/threonine-protein kinase PAK 4 (O96013 whole entry): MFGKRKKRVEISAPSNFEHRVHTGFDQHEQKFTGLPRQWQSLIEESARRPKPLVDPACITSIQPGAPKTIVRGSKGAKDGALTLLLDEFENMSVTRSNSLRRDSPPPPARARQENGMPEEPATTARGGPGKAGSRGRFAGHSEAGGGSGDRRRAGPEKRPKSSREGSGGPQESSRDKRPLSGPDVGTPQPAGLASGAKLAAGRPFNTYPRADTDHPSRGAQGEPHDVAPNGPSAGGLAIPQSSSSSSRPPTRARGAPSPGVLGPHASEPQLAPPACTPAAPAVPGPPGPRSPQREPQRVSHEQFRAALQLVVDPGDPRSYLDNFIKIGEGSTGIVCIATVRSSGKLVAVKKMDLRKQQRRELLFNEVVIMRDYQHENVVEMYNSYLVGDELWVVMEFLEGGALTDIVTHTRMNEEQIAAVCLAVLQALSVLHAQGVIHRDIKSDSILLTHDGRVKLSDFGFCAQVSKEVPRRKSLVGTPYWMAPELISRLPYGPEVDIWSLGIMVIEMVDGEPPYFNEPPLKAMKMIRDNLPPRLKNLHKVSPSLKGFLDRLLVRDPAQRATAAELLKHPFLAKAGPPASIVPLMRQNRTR

[3] = molecular target: Ras-related protein Rab-6A (Homo sapiens, UniProt P20340)
Chain of Ras-related protein Rab-6A (P20340 whole entry): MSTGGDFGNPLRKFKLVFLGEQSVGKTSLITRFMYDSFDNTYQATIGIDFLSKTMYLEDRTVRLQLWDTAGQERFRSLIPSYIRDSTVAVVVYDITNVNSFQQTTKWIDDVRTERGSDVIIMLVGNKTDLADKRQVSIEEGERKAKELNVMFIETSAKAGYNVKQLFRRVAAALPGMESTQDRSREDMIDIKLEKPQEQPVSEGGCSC

[4] = molecular target: T2, Mitogen-activated protein kinase kinase kinase 5 (Homo sapiens, UniProt Q99683)
T2 sequence (Q99683 whole entry): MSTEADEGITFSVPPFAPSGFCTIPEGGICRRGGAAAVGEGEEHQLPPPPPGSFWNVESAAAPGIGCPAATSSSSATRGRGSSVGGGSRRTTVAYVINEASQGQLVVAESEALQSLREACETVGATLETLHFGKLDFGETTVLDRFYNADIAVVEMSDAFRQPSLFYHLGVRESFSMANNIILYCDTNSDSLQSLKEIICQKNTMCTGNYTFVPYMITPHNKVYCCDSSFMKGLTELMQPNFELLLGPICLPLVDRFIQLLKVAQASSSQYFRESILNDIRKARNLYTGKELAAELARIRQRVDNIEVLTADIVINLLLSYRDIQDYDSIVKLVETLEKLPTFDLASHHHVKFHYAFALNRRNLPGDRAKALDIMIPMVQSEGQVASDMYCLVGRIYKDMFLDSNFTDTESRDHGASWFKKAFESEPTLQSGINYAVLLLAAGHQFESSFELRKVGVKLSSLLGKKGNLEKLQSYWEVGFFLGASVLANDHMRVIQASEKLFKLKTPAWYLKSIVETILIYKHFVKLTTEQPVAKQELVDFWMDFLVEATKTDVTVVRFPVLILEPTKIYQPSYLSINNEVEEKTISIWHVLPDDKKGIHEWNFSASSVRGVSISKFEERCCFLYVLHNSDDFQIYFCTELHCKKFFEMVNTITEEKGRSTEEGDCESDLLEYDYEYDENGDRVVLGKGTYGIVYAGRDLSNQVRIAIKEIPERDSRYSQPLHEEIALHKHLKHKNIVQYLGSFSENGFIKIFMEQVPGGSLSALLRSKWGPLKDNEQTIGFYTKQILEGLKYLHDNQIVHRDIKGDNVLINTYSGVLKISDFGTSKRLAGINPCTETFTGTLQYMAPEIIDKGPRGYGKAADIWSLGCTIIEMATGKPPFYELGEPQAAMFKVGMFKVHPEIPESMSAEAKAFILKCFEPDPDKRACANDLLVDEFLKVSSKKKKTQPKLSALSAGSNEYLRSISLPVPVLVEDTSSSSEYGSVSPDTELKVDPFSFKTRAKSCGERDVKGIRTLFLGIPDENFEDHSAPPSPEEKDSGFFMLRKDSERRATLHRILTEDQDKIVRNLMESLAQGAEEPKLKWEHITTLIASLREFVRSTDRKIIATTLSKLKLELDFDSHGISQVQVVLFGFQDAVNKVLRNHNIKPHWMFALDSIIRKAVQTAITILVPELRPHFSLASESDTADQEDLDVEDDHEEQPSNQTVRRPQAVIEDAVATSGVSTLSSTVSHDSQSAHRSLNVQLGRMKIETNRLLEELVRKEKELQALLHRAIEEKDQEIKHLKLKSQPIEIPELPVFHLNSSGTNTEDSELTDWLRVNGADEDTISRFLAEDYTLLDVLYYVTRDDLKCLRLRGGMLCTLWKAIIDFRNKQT

[5] = molecular target: Proto-oncogene tyrosine-protein kinase Src (Homo sapiens, UniProt P12931)
Chain of Proto-oncogene tyrosine-protein kinase Src (P12931 2-536 limits assumed): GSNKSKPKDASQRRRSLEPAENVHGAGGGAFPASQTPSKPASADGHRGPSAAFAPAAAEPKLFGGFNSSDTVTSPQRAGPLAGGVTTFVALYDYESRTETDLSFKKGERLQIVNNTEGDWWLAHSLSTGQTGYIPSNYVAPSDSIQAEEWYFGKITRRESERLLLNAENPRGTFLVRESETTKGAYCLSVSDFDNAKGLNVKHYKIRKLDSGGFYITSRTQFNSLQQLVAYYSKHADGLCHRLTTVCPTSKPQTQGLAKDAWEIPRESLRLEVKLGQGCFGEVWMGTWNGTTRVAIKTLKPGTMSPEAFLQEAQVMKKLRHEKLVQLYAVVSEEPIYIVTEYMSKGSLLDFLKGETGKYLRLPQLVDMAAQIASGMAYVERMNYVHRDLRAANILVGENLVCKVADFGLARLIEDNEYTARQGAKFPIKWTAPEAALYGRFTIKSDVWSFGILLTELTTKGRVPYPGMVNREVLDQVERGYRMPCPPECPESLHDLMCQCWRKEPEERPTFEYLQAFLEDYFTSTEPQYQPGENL

[6] = molecular target: Tyrosine-protein kinase Lyn (Homo sapiens, UniProt P07948)
Chain of Tyrosine-protein kinase Lyn (P07948 whole entry): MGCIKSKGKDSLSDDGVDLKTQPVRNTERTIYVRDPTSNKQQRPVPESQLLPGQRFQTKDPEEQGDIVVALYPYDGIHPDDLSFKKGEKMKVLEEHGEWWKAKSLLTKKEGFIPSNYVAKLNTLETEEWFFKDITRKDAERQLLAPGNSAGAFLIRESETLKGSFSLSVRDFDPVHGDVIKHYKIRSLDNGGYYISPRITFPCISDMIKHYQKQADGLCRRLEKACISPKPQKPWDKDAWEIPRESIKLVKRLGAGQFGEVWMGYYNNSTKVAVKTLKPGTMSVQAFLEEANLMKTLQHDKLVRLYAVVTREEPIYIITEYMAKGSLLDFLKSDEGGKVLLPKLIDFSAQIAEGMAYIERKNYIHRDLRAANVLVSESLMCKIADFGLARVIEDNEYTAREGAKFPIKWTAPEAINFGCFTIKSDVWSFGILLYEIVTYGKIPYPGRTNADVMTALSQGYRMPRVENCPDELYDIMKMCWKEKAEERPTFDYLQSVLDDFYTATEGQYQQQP

[7] = molecular target: T3, Calcium/calmodulin-dependent protein kinase type IV (Homo sapiens, UniProt Q16566)
T3 sequence (Q16566 whole entry): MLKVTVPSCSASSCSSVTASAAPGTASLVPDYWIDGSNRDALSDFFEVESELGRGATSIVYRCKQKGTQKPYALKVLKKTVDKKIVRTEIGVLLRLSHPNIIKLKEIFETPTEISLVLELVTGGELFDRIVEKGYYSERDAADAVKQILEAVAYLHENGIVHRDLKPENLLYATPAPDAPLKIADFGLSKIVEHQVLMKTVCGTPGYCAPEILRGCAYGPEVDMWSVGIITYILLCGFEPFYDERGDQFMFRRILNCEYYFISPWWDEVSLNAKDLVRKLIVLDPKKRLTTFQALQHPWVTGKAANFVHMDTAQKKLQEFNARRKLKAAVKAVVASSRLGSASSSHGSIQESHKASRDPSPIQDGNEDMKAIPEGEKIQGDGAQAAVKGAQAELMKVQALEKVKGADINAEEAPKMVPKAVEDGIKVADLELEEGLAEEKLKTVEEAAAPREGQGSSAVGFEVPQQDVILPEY

Scaffold protein ILK = molecular target: T4, Scaffold protein ILK (Homo sapiens, UniProt Q13418)
T4 sequence (Q13418 whole entry): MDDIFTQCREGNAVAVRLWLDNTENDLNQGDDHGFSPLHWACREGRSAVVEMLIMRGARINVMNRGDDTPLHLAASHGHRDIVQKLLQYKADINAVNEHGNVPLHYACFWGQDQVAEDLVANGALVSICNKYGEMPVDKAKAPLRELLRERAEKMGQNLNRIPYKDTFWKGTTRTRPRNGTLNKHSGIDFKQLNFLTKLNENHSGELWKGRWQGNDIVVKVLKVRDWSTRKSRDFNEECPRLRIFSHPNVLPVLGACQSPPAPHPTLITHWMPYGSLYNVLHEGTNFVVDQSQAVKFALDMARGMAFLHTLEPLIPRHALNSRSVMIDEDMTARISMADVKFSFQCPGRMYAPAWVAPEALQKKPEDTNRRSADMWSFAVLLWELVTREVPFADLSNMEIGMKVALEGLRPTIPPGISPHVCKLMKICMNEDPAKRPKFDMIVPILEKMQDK
Also: in the data inactive means no Kd found up to 30 µM.

Kd [1]	Kd [2]	Kd [3]	Kd [4]	Kd [5]	Kd [6]	Kd [7]	Kd (Scaffold protein ILK)	Compound
> 30 µM (inactive)	> 30 µM (inactive)	> 30 µM (inactive)	> 30 µM (inactive)	> 30 µM (inactive)	> 30 µM (inactive)	> 30 µM (inactive)	> 30 µM (inactive)	CC(C)(O)CC(=O)NCCn1ccc2ncnc(Nc3ccc(Oc4cccc(C(F)(F)F)c4)c(Cl)c3)c21 [TAK-285]
> 30 µM (inactive)	> 30 µM (inactive)	> 30 µM (inactive)	> 30 µM (inactive)	> 30 µM (inactive)	> 30 µM (inactive)	> 30 µM (inactive)	> 30 µM (inactive)	O=C(Nc1ccc(OC(F)(F)F)cc1)c1sccc1NCc1ccnc2ccccc12 [OSI-930]
> 30 µM (inactive)	> 30 µM (inactive)	> 30 µM (inactive)	> 30 µM (inactive)	> 30 µM (inactive)	> 30 µM (inactive)	> 30 µM (inactive)	> 30 µM (inactive)	O=C(O)c1ccc2c(c1)nc(Nc1cccc(Cl)c1)c1ccncc12 [SILMITASERTIB]
> 30 µM (inactive)	> 30 µM (inactive)	> 30 µM (inactive)	> 30 µM (inactive)	> 30 µM (inactive)	> 30 µM (inactive)	> 30 µM (inactive)	> 30 µM (inactive)	O=C(NC[C@H](O)CO)c1ccncc1Nc1ccc(I)cc1F [PIMASERTIB]

The remaining lines, values behind:

Compound	Kd [1]	Kd [2]	Kd [3]	Kd [4]	Kd [5]	Kd [6]	Kd [7]	Kd (Scaffold protein ILK)
C=CC(=O)Nc1cc(Nc2nccc(-c3cn(C)c4ccccc34)n2)c(OC)cc1N(C)CCN(C)C [OSIMERTINIB]	> 30 µM (inactive)	> 30 µM (inactive)	> 30 µM (inactive)	> 30 µM (inactive)	> 30 µM (inactive)	> 30 µM (inactive)	> 30 µM (inactive)	> 30 µM (inactive)
COc1cc2ncnc3c2cc1OCCCCCN(C)Cc1ccc(Br)cc1N3 [JNJ-26483327]	> 30 µM (inactive)	> 30 µM (inactive)	> 30 µM (inactive)	> 30 µM (inactive)	> 30 µM (inactive)	> 30 µM (inactive)	> 30 µM (inactive)	> 30 µM (inactive)
Cc1c(Cn2c(C)nc3c(C(=O)O)cc(N4CCOCC4)cc32)cccc1C(F)(F)F [GSK-2636771]	> 30 µM (inactive)	> 30 µM (inactive)	> 30 µM (inactive)	> 30 µM (inactive)	> 30 µM (inactive)	> 30 µM (inactive)	> 30 µM (inactive)	> 30 µM (inactive)
COc1cc2ncnc(Nc3ccc(F)c(Cl)c3)c2cc1NC(=O)/C=C/CN1CCCCC1 [DACOMITINIB ANHYDROUS]	> 30 µM (inactive)	> 30 µM (inactive)	> 30 µM (inactive)	> 30 µM (inactive)	> 30 µM (inactive)	> 30 µM (inactive)	> 30 µM (inactive)	> 30 µM (inactive)
COc1ccc2c(OCc3nnc4ccc(-c5ccccc5)nn34)ccnc2c1 [AMG-208]	> 30 µM (inactive)	> 30 µM (inactive)	> 30 µM (inactive)	> 30 µM (inactive)	> 30 µM (inactive)	> 30 µM (inactive)	> 30 µM (inactive)	> 30 µM (inactive)
C#Cc1cccc(Nc2ncnc3cc4c(cc23)OCCOCCOCCO4)c1 [ICOTINIB]	> 30 µM (inactive)	> 30 µM (inactive)	> 30 µM (inactive)	> 30 µM (inactive)	> 30 µM (inactive)	> 30 µM (inactive)	> 30 µM (inactive)	> 30 µM (inactive)
